This note sets out measurements from ChEMBL document CHEMBL5726857, “Bacterial topoisomerase I inhibitors with antibacterial activity” (2019).

The structures appear in SMILES notation.

Experiment [1] in a line: DNA Gyrase Supercoiling Inhibition Assay: DNA gyrase supercoiling assays were carried out by mixing the compounds and the enzyme in a similar manner as above (EcTopI relaxation inhibition assay) but in a gyrase assay buffer (35 mM Tris-HCl, 24 mM KCl, 4 mM MgCl2, 2 mM DTT, 1.75 mM ATP, 5 mM spermidine, 0.1 mg/mL BSA, 6.5% glycerol at pH 7.5), followed by the addition of 300 ng of relaxed covalently closed circular DNA (New England Biolabs, Ipswich, Mass., USA) to a final reaction volume of 20 μL. The samples were incubated at 37° C. for 30 minutes before being terminated by the addition of a buffer containing 5% SDS, 0.25% bromophenol blue, and 25% glycerol. The reactions were then analyzed by agarose gel electrophoresis. The arrangement: species or system Escherichia coli.

Experiment [2] is described as follows: E. coli Topoisomerase I Relaxation Activity Inhibition Assay: The relaxation activity of E. coli topoisomerase I was assayed in a buffer containing 10 mM Tris-HCl, pH 8.0, 50 mM NaCl, 0.1 mg/mL gelatin, and 0.5 mM MgCl2. Half microliter from the appropriate stock solutions of compounds dissolved in the solvent (DMSO) or the solvent alone (control) was mixed with 9.5 μL of the reaction buffer containing 10 ng of enzyme before the addition of 10 μL of reaction buffer containing 200 ng of supercoiled pBAD/Thio plasmid DNA purified by cesium chloride gradient as substrate. Following incubation at 37° C. for 30 min, the reactions were terminated by the addition of 4 μL of a stop buffer (50% glycerol, 50 mM EDTA, and 0.5% (v/v) bromophenol blue), and analyzed by agarose gel electrophoresis. The gels were stained in ethidium bromide and photographed under UV light.

Turning to `Nc1ccc2c(c1)Oc1c(N3CCNCC3)c(F)cc3c(=O)c(C(=O)O)cn-2c13`, the IC50 (commonly the midpoint of a concentration-inhibition curve) in experiment [1] was 11.7 µM. `Nc1ccc2c(c1)Oc1c(N3CCCCC3)c(F)cc3c(=O)c(C(=O)O)cn-2c13`: in experiment [2], the IC50 worked out at 3.9 µM. Turning to `CN1CCN(c2c(F)cc3c(=O)c(C(=O)O)cn4c3c2Oc2cc(N)ccc2-4)CC1`, it took 23.4 µM to reach half-maximal inhibition in experiment [1] (IC50). Regarding `CCCCCNc1c(F)cc2c(=O)c(C(=O)O)cn3c2c1Oc1cc(N)ccc1-3`, the IC50 in experiment [2] came out at 15.6 µM.
